This note sets out measurements from patent US7507806B2, “Nucleic acid sequences of human Rif1” (The Rockefeller University, priority 2004, dated 2009).

What all share (type): cell-based, human
In one assay the test system is 53BP1 foci. Kind of assay: 53BP1 foci by indirect immunofluorescence after IR or UV. The settings on record: aphidicolin after the UV irradiation. The method, then: (§1) For IR treatment, cells were exposed to gamma(λ)-irradiation using a Cs^137 source at a rate of 7.7 Gray/min in 6 cm dishes. For UV radiation, cells were washed with PBS and exposed to 25 J/m^2 UV (265 nm) radiation in a Stratalinker (Stratagene) without a lid. After UV radiation, cells were incubated in media until harvest. For immunoblotting as described in FIG. 2B, cells were harvested 1 hr post-UV. MMS and etoposide (0.01% w/v and 50 μg/ml, respectively) were added to the media and cells were incubated for 1 hr before harvesting.
(§2) To stain cells for immunofluorescence, tissue culture cells plated on dishes with coverslips were washed twice with PBS, fixed with 2% paraformaldehyde in PBS (stored at −20° C.) for 10 minutes at room temperature (RT), washed twice with PBS and permeabilized with 0.5% NP-40 in PBS for 10 minutes at RT and washed three times with PBS. Cells were processed immediately or stored at 4° C. wrapped in PBS with sodium azide. […]

The test system of assay [1] is Rif1 foci. The assay can be described thus: UV-induced Rif1 foci by indirect immunofluorescence. The settings on record: aphidicolin after the UV irradiation. The method, then: as §1, §2
For assay [2], the system named is Rif1 foci. Kind of assay: Rif1 foci after drug treatment, immunofluorescence. The settings on record: MMS 0.01% w/v, etoposide 50 μg/ml, 1 hr; hydroxyurea prolonged incubation. The method, then: as §1
To stain cells for immunofluorescence, tissue culture cells plated on dishes with coverslips were washed twice with PBS, fixed with 2% paraformaldehyde in PBS (stored at −20° C.) for 10 minutes at room temperature (RT), washed twice with PBS and permeabilized with 0.5% NP-40 in PBS for 10 minutes at RT and washed three times with PBS. Cells were processed immediately or stored at 4° C. wrapped in PBS with sodium azide. Coverslips were placed on parafilm in a humidified tray and blocked with PBG (0.2% (w/v) cold water fish gelatin (Sigma), 0.5% (w/v) BSA (Sigma) in PBS (stored at −20° C.) for 30 minutes at RT. Cells were then incubated with primary antibody diluted in PBG for 3 hours at RT, washed three times with PBG for 5 minutes at RT, incubated with secondary antibody diluted 1:100 in PBG for 40 minutes at RT, washed three times with PBG for 5 minutes at RT (with the last wash containing DAPI ([…]). Coverslips were then washed twice with PBS and mounted on glass slides in mounting media and sealed with nail polish.

As for `C[C@@]1(CO)[C@H](O)CC[C@@]2(C)[C@H]1CC[C@H]1C[C@@H]3C[C@@]12CC[C@]3(O)CO` [Aphidicolin], the “53BP1 foci after UV” value in the assay with 53BP1 foci is given as “still detectable”. Also, the “Rif1 foci after UV” value in the assay on Rif1 foci [1] was “fail to form Rif1 foci after UV”.
In the case of `COS(C)(=O)=O` [MMS], the “Rif1 foci formation after treatment” value in the assay on Rif1 foci [2] is recorded as “forms foci”.
Take `COc1cc([C@@H]2c3cc4c(cc3[C@@H](O[C@@H]3O[C@@H]5CO[C@@H](C)O[C@H]5[C@H](O)[C@H]3O)[C@H]3COC(=O)[C@H]23)OCO4)cc(OC)c1O` [etoposide]: the “Rif1 foci formation after treatment” value with Rif1 foci [2] is on record as “forms foci”.
As to `NC(=O)NO` [hydroxyurea], in the assay with Rif1 foci [2], the “Rif1 foci formation after treatment” value is “forms foci”.
